Where two headings read alike, the source gives them in different places. Blank lines part the entries; values can stand above or below the compound they belong to.
What was measured:
[1] = Metabolic stability in rat liver microsomes; format: in vitro ADME; conditions: for microsomal CLint at 1 µM: read-out: intrinsic clearance rate; for half-life at 1 µM: read-out: metabolic half-life (t1/2)
Procedure: Rat liver microsomes were used to investigate the effects of verapamil on the metabolism clearance of oridonin, and the assay conditions and reaction mixtures were similar to those reported previously (Wang et al. [2017]; Yan et al. [2017]). In brief, 30 µL rat liver microsome (20 mg/mL), 12 µL oridonin solution (100 µM) and 1113 µL PBS buffer (0.1 M, pH 7.4) were added to the centrifuge tubes on ice. There was a 5 min preincubation step at 37 °C before initiating the reaction by adding NADPH-generating system (45 µL) into the microsomal suspension. The effects of verapamil or ketoconazole (a positive CYP3A4 inhibitor) on the metabolic stability of oridonin were investigated by adding 10 µM of verapamil or ketoconazole (12 µL, final concentration of 0.1 µM) to rat liver microsomes and preincubating them for 30 min at 37 °C, followed by the addition of NADPH-generating system. Aliquots of 100 µL were collected from the reaction volumes at 0.083, 0.167, 0.33, 0.5, 1, 2, 4, 8, 12, 24 and 36 h after the addition of oridonin, and 200 µL ice-cold acetonitrile containing esculin was added to terminate the reaction. All the experiments were performed in triplicate. The subsequent sample preparation method was same as the method of plasma sample preparation, and the concentration of oridonin was determined by LC-MS.
The in vitro half-life (t1/2) was obtained using the equation: t1/2=0.693/k; V (µL/mg)=volume of incubation (µL)/protein in the incubation (mg); Intrinsic clearance (Clint) (µL/min/mg protein)=V × 0.693/t1/2.

[2] = set-up: method as in Xu et al. [2006]; conditions: oral administration in rats; ref Xu et al. [2006]; cited from earlier work
[3] = In vivo pharmacokinetic study of oridonin in rats with or without verapamil pre-treatment; conditions: Sprague-Dawley, rat, plasma, po, intragastrical oridonin (40 mg/kg; n = 6, mean ± SD); for CL/F: read-out: CLz/F (oral clearance) (converted)
Procedure: To evaluate the effects of verapamil on the pharmacokinetics of oridonin, the rats were divided into two groups of six animals each. The pre-treatment group was pre-treated with verapamil at a dose of 10 mg/kg/day (dissolved directly in normal saline containing 0.5% methylcellulose at a concentration of 2 mg/mL) for 7 days before the administration of oridonin. […] The dose of verapamil and oridonin were based on previous reports (Xu et al. [2006]; Zhu et al. [2017]; Huang et al. [2018]; Zhou et al. [2019]). The control group was without the pre-treatment of verapamil before the oral administration of oridonin. Blood samples (250 µL) were collected into heparinized tubes via the oculi chorioideae vein at 0.083, 0.33, 0.5, 1, 2, 4, 6, 8, 10, 12, 24 and 36 h after the oral administration of oridonin. The blood samples were centrifuged at 3500 rpm for 5 min. The plasma samples that were obtained were stored at −40 °C until analysis.
To 100 µL aliquot of a plasma sample, 20 µL methanol and 180 µL internal standard methanol solution (2 ng/mL) were added and vortexed for 60 s to mix in a 1.5 mL polypropylene tube, and were centrifuged at 12,000 rpm for 10 min. The supernatant was removed into an injection vial, and a 3 µL aliquot was injected into the LC-MS/MS system for analysis.
The determination of oridonin was performed on Agilent 1290 series liquid chromatography system and an Agilent 6470 triple-quadruple mass spectrometer (Palo Alto, CA, USA). The HPLC/MS conditions and sample preparation were basically according to a validated HPLC method described before (Jin et al. [2015]; Zhang et al. [2019]). The chromatographic analysis of oridonin was performed on a Waters X-Bridge C18 column (3.0 × 100 mm, i.d.; 3.5 µm, USA) at room temperature (25 °C). The mobile phase was water (containing 0.1% formic acid) and acetonitrile (30:70, v:v) with isocratic elution at a flow rate of 0.2 mL/min, and the analysis time was 4 min.
The mass scan mode was positive MRM mode. The precursor ion and product ion are m/z 365.3→347.3 for oridonin and m/z 252.1→155.9 for IS. The collision energy for oridonin and IS were 30 and 20 eV, respectively. The MS/MS conditions were optimized as follows: fragmentor, 110 V; capillary voltage, 3.5 kV; nozzle voltage, 500 V; nebulizer gas pressure (N2), 40 psig; drying gas flow (N2), 10 L/min; gas temperature, 350 °C; sheath gas temperature, 400 °C; sheath gas flow, 11 L/min.
The pharmacokinetic parameters, including the area under the plasma concentration-time curve (AUC), maximal plasma concentration (Cmax), the time for the maximal plasma concentration (Tmax), and the mean residence time (MRT) were calculated using the DAS 3.0 pharmacokinetic software (Chinese Pharmacological Association, Anhui, China).

[4] = Bidirectional transport across Caco-2 cell transwell model; format: in vitro ADME; conditions: human, Caco-2, oridonin 2 µM; for Papp B→A at 2 µM: basolateral to apical
Procedure: (§1) The Caco-2 cell line was obtained from the American Type Culture Collection (Manassas, VA, USA), and it was performed according to the previous study (Liu et al. [2018]). The Caco-2 cells were cultured in DMEM high glucose medium containing 15% FBS, 1% NEAA and 100 U/mL penicillin and 100 µg/mL streptomycin. The cells were cultured at 37 °C with 5% CO2. For transport studies, the cells at passage 40 were seeded on transwell polycarbonate insert filters (1.12 cm^2 surface, 0.4 µm pore size, 12 mm diameter; Corning Costar Corporation, MA, USA) in 12-well plates at a density of 1 × 10^5 cells/cm^2. Cells were allowed to grow for 21 days. For the first seven days, the medium was replaced every two days, and then daily. The transepithelial electrical resistance (TEER) of the monolayer cells was measured using Millicell ERS-2 (Millipore Corporation, Billerica, MA, USA), and TEER exceeding 400 Ω·cm^2 was used for the flux experiment. The integrity of the Caco-2 monolayers was confirmed by the paracellular flux of Lucifer yellow, which was less than 1% per hour. The alkaline phosphatase activity was validated using an Alkaline Phosphatase Assay Kit. The qualified monolayers were used for transport studies. Before the transport experiments, the cell monolayers were rinsed twice using warm (37 °C) HBSS, then the cells were incubated at 37 °C for 20 min. After preincubation, the cell monolayers were incubated with oridonin in fresh incubation medium added on either the apical or basolateral side for the indicated times at 37 °C. […] The permeability of oridonin (2 µM) in all of the above condition s for both directions, i.e., from the apical (AP) side to the basolateral (BL) side and from the BL side to the AP side, was measured after incubation for 30, 60, 90 and 120 min at 37 °C. In addition, the efflux activity of P-gp was validated using a typical P-gp substrate digoxin (25 µM). The apparent permeability coefficient (Papp) was calculated using the equation of Artursson and Karlsson: Papp=(ΔQ/Δt)×[1/(A×C0)] where Papp is the apparent permeability coefficient (cm/s), ΔQ/Δt (µmol/s) is the rate at which the compound appears in the receiver chamber, C0 (µmol/L) is the initial concentration of the compound in the donor chamber and A (cm^2) represents the surface area of the cell monolayer. Data were collected from three separate experiments, and each was performed in triplicate. In addition, the efflux activity of P-gp was validated using a typical P-gp substrate digoxin (25 µM).

[5] = tested on: P-gp; assay: as above; format: in vitro ADME; conditions: human; Caco-2, digoxin 25 µM, P-gp substrate validation, without verapamil
Procedure: as §1

[6] = tested on: Caco-2 cell monolayers; assay: as above; format: in vitro ADME; conditions: Caco-2, digoxin 25 µM, verapamil present
Procedure: as §1

[7] = pre-treatment of verapamil (10 mg/kg/day for 7 days)
[8] = with verapamil (concentration not stated), verapamil present

microsomal CLint at 1 µM ([1]; pH 7.4, oridonin alone): 40.1 ± 2.5 µL/min/mg
half-life at 1 µM ([1]; pH 7.4, oridonin alone): 0.577 ± 0.045 h
half-life at 1 µM ([1]; pH 7.4, with verapamil 0.1 µM, in the presence of verapamil): 0.64 ± 0.055 h
microsomal CLint at 1 µM ([1]; pH 7.4, with verapamil 0.1 µM, verapamil present): 36.1 ± 3.7 µL/min/mg
Cmax ([3]; 40 mg/kg, control without verapamil): 147 ± 10.2 ng/mL
AUC(0-t) ([3]; control without verapamil): 1310 ± 290 ng·h/mL
MRT ([3]; control without verapamil): 9.25 ± 1.1 h
Tmax ([3]; control without verapamil): 1 ± 0.12 h
half-life ([3]; control without verapamil): 10.9 ± 4.38 h
CL/F ([3]; control without verapamil): 245 mL/min/kg
AUC(0-t) [3, 7]: 2230 ± 530 ng·h/mL
Cmax [3, 7]: 194 ± 10.5 ng/mL
MRT [3, 7]: 11.5 ± 1.5 h
Tmax [3, 7]: 1 ± 0.18 h
half-life [3, 7]: 13.7 ± 4.81 h
CL/F [3, 7]: 135 mL/min/kg
efflux ratio at 2 µM ([4]; pH 7.4, without verapamil): 1.67
Papp B→A at 2 µM [4, 8]: 0.222 ± 0.032 ×10⁻⁶ cm/s
efflux ratio at 2 µM [4, 8]: 1.15
Papp A→B at 2 µM ([4]; apical to basolateral, HBSS pH 7.4, 37 °C, without verapamil): 0.191 ± 0.015 ×10⁻⁶ cm/s
Papp B→A at 2 µM ([4]; HBSS pH 7.4, 37 °C, without verapamil): 0.32 ± 0.016 ×10⁻⁶ cm/s
Structure (SMILES): C=C1C(=O)[C@]23[C@H](O)[C@H]1CC[C@H]2[C@@]12CO[C@]3(O)[C@@H](O)[C@@H]1C(C)(C)CC[C@@H]2O [oridonin]
bioavailability (available after oral administration) [2]: 11%

efflux ratio at 25 µM [5]: 10.1
efflux ratio [6]: abrogated
Structure (SMILES): C[C@H]1O[C@@H](O[C@H]2[C@@H](O)C[C@H](O[C@H]3[C@@H](O)C[C@H](O[C@H]4CC[C@@]5(C)[C@H](CC[C@@H]6[C@@H]5C[C@@H](O)[C@]5(C)[C@@H](C7=CC(=O)OC7)CC[C@]65O)C4)O[C@@H]3C)O[C@@H]2C)C[C@H](O)[C@@H]1O [digoxin]
